{"source": "patent US20230124634A1", "about": "“ANTIBACTERIAL COMPOSITION” (CONOPCO, INC., D/B/A UNILEVER, priority 2020, published 2023)", "key": {"[1]": {"tested_on": "Staphylococcus aureus ATCC 6538", "test": "In-Vitro Time-Kill assay (EN 1040:2005 with minor modifications)", "format": "cell-based", "experimental": "Inoculums of S. aureus at about 10^7.5 colony forming units per milliliter (CFU/mL) were prepared from 24-hour cultures on agar plates. […]\nThe log10 of (number of surviving cells (CFU/mL)/initial number of cells) is plotted versus the exposure time. […] The exposure time is limited to only 60 s, as this time frame is a realistic estimate of the amount of time devoted to hand washing.\nSurfactant Solution Preparation—Solution preparation consisted of mixing the surfactant solution with an equal volume of the appropriate buffer to form a test solution containing 50% of the original formulation concentration. Sodium carbonate/bicarbonates buffers (0.1 M) were prepared for use at pH 10 and 7, respectively, while sodium acetate buffer was used at pH 5.\nThe bacteria were stored at −80° C. and fresh working cultures were prepared by streaking on Tryptic Soy Agar plates for 24 hours at 37° C. and then preparing second subcultures in the same way before each experiment.\nFollowing this procedure, stationary-phase bacterial cultures at approximately […] colony forming units (CFU) per mL (GF-U) were treated with the surfactant solution (as described above) at 25° C., rather than at 20° C. as specified in the Standard. In constructing the test sample, 8 parts by weight of the surfactant solution was combined with 1 part by weight of the culture and 1 part by weight of water. After 10, 20, 30, and 60 seconds of exposure, the samples were neutralized to arrest the antibacterial activity of the surfactant solution. […] The test solutions were serially diluted, plated on solid medium, and incubated for 24 hours. The surviving cells were then enumerated. Bactericidal activity was defined as the log10 reduction in CFU relative to the initial bacterial concentration at 0 seconds. Cultures not exposed to surfactant solution acted as the no-treatment controls. The log10 reduction was calculated using the formula:\nlog10 reduction=log10(CFU in no-treatment control)−log10(CFU in treated sample)"}, "[2]": {"conditions": "cited from earlier work"}, "[3]": {"test": "Silver ion solubility derived from solubility product (Ksp) in water at 25° C.", "conditions": "calculated from Ksp", "text": "More particularly, silver ion solubility [Ag+], a value given in mol/L may be calculated using the formula:"}, "[4]": {"conditions": "pH 5; cited from earlier work"}, "[5]": {"conditions": "throughout the pH interval claimed"}}, "data": [{"molecule": "sodium lauryl ether sulfate [SLES]", "values": [{"measurement": "synergy with silver ion", "setting": "[1]; pH 5", "value": "strong synergy with silver ion"}, {"measurement": "log10 reduction", "setting": "[1]; pH 5, on its own", "value": "about 2 log10"}, {"measurement": "log10 unit reduction", "setting": "[1]; pH 7, SLES at 1% (top-half of Table 5)", "value": "≤ 1", "unit": "log10"}, {"measurement": "log10 unit reduction", "setting": "[1]; pH 7, SLES at 10% (second half of Table 5)", "value": "≤ 1", "unit": "log10"}]}, {"molecule": "O=[N+]([O-])[O-].[Na+]", "note": "[NaNO3, sodium nitrate]", "values": [{"measurement": "NaNO3 necessary to recover a one unit log10 reduction in S. aureus", "setting": "[1]; in the presence of 0.03 M NaCl, SLES/Ag^+, pH 7.0", "value": "≥ 0.3", "unit": "M"}]}, {"molecule": "O=C([O-])c1ccccc1.[Ag+]", "note": "[Silver benzoate]", "values": [{"measurement": "Ksp (mol/L in water at 25° C.)", "setting": "[2]", "value": "2.5e-05", "unit": "mol/L"}]}, {"molecule": "sodium lauryl ether sulfate with (on average) 3 ethoxy groups [SLES-3EO]", "values": [{"measurement": "inherent biocidal action", "setting": "[1]; [5]", "value": "limited inherent biocidal action"}, {"measurement": "synergy with silver ion", "setting": "[1]; [5]", "value": "strong synergy with silver ion"}]}, {"molecule": "sodium lauryl ether sulfate with (on average) 1 ethoxy group [SLES-1 EO]", "values": [{"measurement": "log10 reduction", "setting": "[1]; pH range of 7-10, in the presence of silver ion", "value": "about 4 log10"}, {"measurement": "log10 reduction", "setting": "[1]; pH range of 7-10, without silver", "value": "about 0.5 log10"}, {"measurement": "inherent biocidal action", "setting": "[1]; [5]", "value": "limited inherent biocidal action"}, {"measurement": "synergy with silver ion", "setting": "[1]; [5]", "value": "strong synergy with silver ion"}]}, {"molecule": "sodium cocoyl glutamate [reference compound]", "values": [{"measurement": "biocidal, inherently or in combination with silver ion", "setting": "[1]; pH 7", "value": "ineffective"}]}, {"molecule": "[Cl][Ag]", "note": "[Silver chloride]", "values": [{"measurement": "Silver Ion Solubility [Ag+] (mol/L in water at 25° C.)", "setting": "[3]", "value": "1.3e-05", "unit": "mol/L"}, {"measurement": "Ksp (mol/L in water at 25° C.)", "setting": "[2]", "value": "1.8e-10", "unit": "mol/L"}]}, {"molecule": "O=S(=O)([O-])[O-].[Ag+].[Ag+]", "note": "[Silver sulfate]", "values": [{"measurement": "Ksp (mol/L in water at 25° C.)", "setting": "[2]", "value": "1.4e-05", "unit": "mol/L"}]}, {"molecule": "O=C([O-])CC(O)(CC(=O)[O-])C(=O)[O-].[Ag+].[Ag+].[Ag+]", "note": "[Silver citrate]", "values": [{"measurement": "Ksp (mol/L in water at 25° C.)", "setting": "[2]", "value": "2.5e-16", "unit": "mol/L"}]}, {"molecule": "octyl phenol ethoxylate [Triton X-100, reference compound]", "values": [{"measurement": "biocidal, inherently or in combination with silver ion", "setting": "[1]; pH 5, 10-60 second time scale", "value": "not biocidal"}, {"measurement": "biocidal, inherently or in combination with silver ion", "setting": "[1]; pH 7", "value": "ineffective"}]}, {"molecule": "[Br][Ag]", "note": "[Silver bromide]", "values": [{"measurement": "Ksp (mol/L in water at 25° C.)", "setting": "[2]", "value": "5.3e-13", "unit": "mol/L"}]}, {"molecule": "sodium lauroamphoacetate [reference compound]", "values": [{"measurement": "biocidal, inherently or in combination with silver ion", "setting": "[1]; pH 7", "value": "ineffective"}]}, {"molecule": "CCCCCCCCCCCCOS(=O)(=O)[O-].[Na+]", "note": "[SDS, sodium dodecyl sulfate]", "values": [{"measurement": "synergy with silver ion", "setting": "[1]; pH 5", "value": "strong synergy with silver ion"}, {"measurement": "intrinsic biocidal properties", "setting": "[1]; pH 5, on its own", "value": "quite biocidal on its own"}, {"measurement": "inherent biocidal action", "setting": "[1]; [5]", "value": "limited inherent biocidal action"}, {"measurement": "synergy with silver ion", "setting": "[1]; [5]", "value": "strong synergy with silver ion"}]}, {"molecule": "O=C(O)c1ccccc1", "note": "[benzoic acid]", "values": [{"measurement": "percentage of organic acid preservative remaining undissociated (and active)", "setting": "[4]", "value": 13, "unit": "%"}]}, {"molecule": "C/C=C/C=C/C(=O)O", "note": "[sorbic acid]", "values": [{"measurement": "percentage of organic acid preservative remaining undissociated (and active)", "setting": "[4]", "value": 37, "unit": "%"}]}, {"molecule": "[Ag+]", "note": "[silver ion]", "values": [{"measurement": "minimum level of silver ion necessary to see enhanced biocidal action", "setting": "[1]; in the presence of 10% SLES and 0.5 M NaNO3, pH 7 and 25° C.", "value": "≥ 0.03", "unit": "ppm"}]}, {"molecule": "Sodium methyl cocoyl taurate [reference compound]", "values": [{"measurement": "synergy with silver ion", "setting": "[1]; pH 5", "value": "nor does it enhance the biocidal action of silver ion"}, {"measurement": "intrinsic biocidal properties", "setting": "[1]; pH 5, on its own", "value": "does not have intrinsic biocidal properties"}, {"measurement": "biocidal, inherently or in combination with silver ion", "setting": "[1]; pH 7", "value": "ineffective"}]}, {"molecule": "sodium cocoyl glycinate [reference compound]", "values": [{"measurement": "biocidal, inherently or in combination with silver ion", "setting": "[1]; pH 7", "value": "ineffective"}]}]}
